Experimental data as given in BigSolDB 2.1.

O=C(O)c1ccc(-c2ccccc2)cc1
solubility (mole fraction)
Conditions | in benzene | in ethanol | in ethyl acetate | in isobutanol | in isopropanol | in methanol | in methyl acetate | in n-butanol | in n-propanol
293.15 K | 0.00101 | 0.00366 | 0.00654 | 0.00276 | 0.0039 | 0.00255 | 0.0051 | 0.00471 | 0.00426
298.15 K | 0.00123 | 0.00436 | 0.00802 | 0.00349 | 0.00464 | 0.00304 | 0.00593 | 0.00559 | 0.00509
303.15 K | 0.00149 | 0.00512 | 0.00923 | 0.00418 | 0.00563 | 0.0036 | 0.00704 | 0.00658 | 0.00598
308.15 K | 0.00179 | 0.00606 | 0.0108 | 0.0051 | 0.00653 | 0.00424 | 0.00815 | 0.00775 | 0.00685
313.15 K | 0.00214 | 0.0072 | 0.0124 | 0.0063 | 0.00779 | 0.00484 | 0.00942 | 0.00897 | 0.00817
318.15 K | 0.00254 | 0.00831 | 0.0143 | 0.00781 | 0.00952 | 0.00584 | 0.0108 | 0.0105 | 0.00954
323.15 K | 0.003 | 0.00962 | 0.0165 | 0.0093 | 0.0115 | 0.0066 | 0.0126 | 0.012 | 0.0112
328.15 K | 0.00353 | 0.0109 | 0.019 | 0.0111 | 0.0134 | 0.0076 | 0.0145 | 0.0138 | 0.0132
